Earlier results, collected in patent publication US11491230B2, “Medication” (priority 2015, dated 2022).

Key:
[1] = test system: estrogen receptor-positive and estrogen receptor-negative breast cancer cell lines; settings: inducing apoptosis in a concentration-dependent manner
[2] = test system: nontumorigenic mammary cells
CB1 receptor = CB1 receptor (Homo sapiens, UniProt P21554)
PC-3 = PC-3 (Ruiz et al. 1999)
[3] = target: T1, androgen receptor in the prostate gland (Homo sapiens, UniProt P10275)
T1 construct: host or cells: prostate gland
T1 sequence (P10275 1-920): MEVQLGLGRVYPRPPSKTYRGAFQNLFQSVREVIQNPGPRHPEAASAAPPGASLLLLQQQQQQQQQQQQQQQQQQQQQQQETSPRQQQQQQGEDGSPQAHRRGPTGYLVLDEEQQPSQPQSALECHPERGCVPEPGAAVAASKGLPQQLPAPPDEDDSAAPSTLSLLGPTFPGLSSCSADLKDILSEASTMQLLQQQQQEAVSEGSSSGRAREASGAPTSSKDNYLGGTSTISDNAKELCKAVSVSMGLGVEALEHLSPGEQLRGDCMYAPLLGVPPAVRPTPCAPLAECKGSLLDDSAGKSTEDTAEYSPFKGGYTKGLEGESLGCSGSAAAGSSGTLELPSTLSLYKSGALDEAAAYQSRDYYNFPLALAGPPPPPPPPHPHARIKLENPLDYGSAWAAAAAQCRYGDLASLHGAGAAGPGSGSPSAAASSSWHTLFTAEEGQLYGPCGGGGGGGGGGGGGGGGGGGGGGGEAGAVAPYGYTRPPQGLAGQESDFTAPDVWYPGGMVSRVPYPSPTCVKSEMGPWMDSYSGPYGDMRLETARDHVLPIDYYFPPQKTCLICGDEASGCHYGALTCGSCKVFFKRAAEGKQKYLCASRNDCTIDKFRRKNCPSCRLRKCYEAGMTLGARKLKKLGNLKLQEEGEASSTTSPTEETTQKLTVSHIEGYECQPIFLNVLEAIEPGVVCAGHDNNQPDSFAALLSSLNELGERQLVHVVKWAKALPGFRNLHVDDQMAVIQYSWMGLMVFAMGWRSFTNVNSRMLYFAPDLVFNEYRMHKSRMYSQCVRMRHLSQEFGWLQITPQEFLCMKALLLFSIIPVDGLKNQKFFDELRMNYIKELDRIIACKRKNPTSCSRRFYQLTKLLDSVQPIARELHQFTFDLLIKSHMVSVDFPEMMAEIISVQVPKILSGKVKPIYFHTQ

[4] = not given; remark: listed apart in the source

Sequence of CB1 receptor (P21554 whole entry): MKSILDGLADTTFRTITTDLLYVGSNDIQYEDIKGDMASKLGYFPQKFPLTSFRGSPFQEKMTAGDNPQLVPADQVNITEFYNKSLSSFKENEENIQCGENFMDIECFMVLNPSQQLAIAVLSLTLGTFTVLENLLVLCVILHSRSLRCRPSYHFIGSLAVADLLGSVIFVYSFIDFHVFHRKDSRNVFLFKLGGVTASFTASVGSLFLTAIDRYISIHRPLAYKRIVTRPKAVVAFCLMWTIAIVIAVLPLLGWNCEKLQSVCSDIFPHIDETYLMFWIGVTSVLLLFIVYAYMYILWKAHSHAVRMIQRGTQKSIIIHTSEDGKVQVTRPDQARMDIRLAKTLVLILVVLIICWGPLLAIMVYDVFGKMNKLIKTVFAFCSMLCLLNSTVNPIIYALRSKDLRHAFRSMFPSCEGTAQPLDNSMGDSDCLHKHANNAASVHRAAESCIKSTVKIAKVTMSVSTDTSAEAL

For C=C(C)[C@@H]1CCC(C)=C[C@H]1c1c(O)cc(CCCCC)cc1O [CBD, Cannabidiol], the “survival of breast cancer cell lines” value [1] is listed as “inhibited the survival”, the “effect on nontumorigenic mammary cells” value [2] is listed as “little effect” and the “affinity to cannabinoid receptors” value (cannabinoid receptors) is listed as “low affinity”.
In the case of CCCc1cc(O)c2c(c1)OC(C)(C)[C@@H]1CCC(C)=C[C@@H]21 [THCV, Tetrahydrocannabivarin], the “activity at CB1 receptor” value (CB1 receptor) is listed as “CB1 receptor antagonist”.
For CCCCCc1cc(O)c2c(c1)OC(C)(C)[C@@H]1CCC(C)=C[C@@H]21 [THC, Tetrahydrocannabinol], the apoptosis (PC-3) is given as “causes apoptosis”, the pain sensitivity (cold-pressor test after administration, dronabinol oral capsules 10 mg or 20 mg) is given as “decreased pain sensitivity” and the duration of effect (dronabinol versus smoked marijuana) is given as “lasted longer than smoked marijuana”. For the same molecule, the “time until pain reduction effects were felt after administration” value (on the average) was 180 min and the “specific binding of dihydroxytestosterone to the androgen receptor” value [3] was “inhibits specific binding”.
In the case of vitamin E, the “reduction in breast cancer incidence” value ([4]; pre-menopausal women with a family history of breast cancer, highest quantity of vitamin E consumed) is listed as 43% and the “breast cancer risk reduction” value ([4]; women without a family history of breast cancer) is listed as 16%.
